Measurements from patent publication US10058495B2, “Method of making a skin care product” (The Procter & Gamble Company, priority 2014, dated 2018).
Residues, ends and D or L forms follow the SMILES beside them. *: point of attachment. Palmitoyl = CCCCCCCCCCCCCCCC(=O)*

Tests used:
[1] = Ex vivo skin penetration study (Franz cell); assay type: in vitro ADME, human; settings: arrays 1 (uni-directional, 27 mT) and 2 (bi-directional, overall 21 mT) of Table 1 versus other arrays tested; 400 μg/ml in 50:50 PG:PB at pH 4
Protocol: An ex vivo skin penetration study was conducted to compare the ability of different magnetic arrays to enhance penetration of Pal-KTTKS (SEQ ID NO: 1) into the epidermis of human skin. The dermis and epidermis of human skin samples obtained from donors aged 60-65 years were heat separated and the dermis discarded. 20 μL of a Pal-KTTKS (SEQ ID NO: 1) containing composition (400 μg/ml in 50:50 PG:PB at pH 4) was placed on human epidermis in Franz cell. Different magnetic arrays were positioned approximately 1.0 mm above the epidermis samples and moved over the samples at the speed a user might move a cosmetic applicator when applying a skin care product (e.g., about 20-25 cm/sec). Samples were taken and measured at 0, 1, 2, 4, 6, 8, 24 hours. […] For the bi-directional arrays herein, the “1st layer” refers to the layer closest to the skin-contacting surface of the applicator, and the “2nd layer” refers to the layer disposed on the side of the 1st layer opposite the side closest to the skin-contacting surface.

[2] = In vivo skin penetration study #2 (Tape Stripping method), magnetic vs non-magnetic applicator; parameters: species or system human; settings: for amount of Pal-KTTKS recovered, Sum 2-10 / amount of Pal-KTTKS recovered, Sum 6-10: in ng (unit assumed)
Protocol: This method provides a suitable means of measuring the amount of skin care active present in skin, and comparing active versus passive application of the skin care active. Two identical rectangular areas of 15 cm^2 are marked on the volar forearms of volunteers. A measured dose (approximately 30 mg) of the Pal-KTTKS (SEQ ID NO: 1) formulation is applied to the delineated areas using a screw actuated syringe. Active application is carried out on one of the delineated areas using the three-quarter profile of a purpose made applicator (e.g., an applicator presenting one of the magnetic arrays set forth in Table 2). Passive application is accomplished on the other delineated area using the tip of a finger in a sweeping motion identical to that of the active application. The formulation is spread evenly across the entire delineated region using a sweeping motion with a fixed speed of approximately 23 cm/s to […]. The application period is 30 seconds during which time visual inspection is used to ensure even distribution and absorption of the formulation by skin. The application area is then left uncovered for a further 30 minutes to ensure complete absorption. Tape strip samples may be collected and/or analyzed immediately after the complete absorption is ensured or after a waiting period (e.g., after multiple applications of the formulation over multiple hours or days).
The tape stripping procedure is carried out using 10 commercial pre-cut 22.1 mm tape stripping adhesive discs (e.g., D-SQUAME, available from Cuderm Corporation or equivalent) with an adhesive area of 3.8 cm^2. The 10 tape strips are applied sequentially to the same sampling site, which ideally enables each tape strip to obtain a sample from deeper within the stratum corneum than the tape strip that preceded it. A 22.1 mm diameter circular region is marked at the center of the application area. A tape stripping adhesive disc is placed over the marked area and even pressure applied using, for example, a neoprene roller, rolled ten times over the adhesive disc. The adhesive disc is removed from the skin surface in a single pulling motion using manual tweezers. To ensure even removal of the skin sample, subsequent discs are removed in a “north, south, east and west” orientation, which is within the skill of the ordinary artisan. Each adhesive disc is non-destructively analysed for protein content using a suitable instrument (e.g., SquameScan™ 850 instrument commercially available from Heiland Electronics Wetzlar, Germany, or equivalent). The adhesive disc is then immediately placed into a glass vial containing extraction solvent in preparation for subsequent analysis. Solvent extractions are conducted on each tape strip using conventional extraction methods, which are well known to those of ordinary skill in the art, and measuring the amount of Pal-KTTKS (SEQ ID NO: 1) present in the extract, for example, by high performance liquid chromatography (“HPLC”) and/or mass spectrometry.
The procedure is repeated for the remaining nine strips. An additional strip is obtained from outside the area of application of the skin care formulation to serve as a blank sample. The amount of active is normalized to the amount of protein measured.
This in vivo skin penetration study compares the penetration of Pal-KTTKS (SEQ ID NO: 1) into skin when a Pal-KTTKS (SEQ ID NO: 1)-containing composition is applied with a magnetic applicator (active application) versus application with a non-magnetic applicator (passive application). In this example, 5 test subjects (A to E in Tables 13 and 14) were selected. 18 mg of a composition containing Pal-KTTKS (SEQ ID NO: 1) (Olay® Deep Wrinkle Treatment® brand skin cream available from the Procter & Gamble Company, Cincinnati, Ohio) was applied to two 3 cm×3 cm test sites on the inner forearms of each test subject using the applicator illustrated in FIG. 1C. The applicator used for active application included Array #8 from Table 2. […]

[3] = active, array #8, Avg of all test sites
[4] = active, array #8, subject A site 1
[5] = active, array #8, subject A site 2
[6] = active, array #8, subject B site 1
[7] = active, array #8, subject B site 2
[8] = active, array #8, subject C site 1
[9] = active, array #8, subject C site 2
[10] = active, array #8, subject D site 1
[11] = active, array #8, subject D site 2
[12] = active, array #8, subject E site 1
[13] = active, array #8, subject E site 2

SMILES: CCCCCCCCCCCCCCCC(=O)N[C@@H](CCCCN)C(=O)N[C@H](C(=O)N[C@H](C(=O)N[C@@H](CCCCN)C(=O)N[C@@H](CO)C(=O)O)[C@@H](C)O)[C@@H](C)O [Pal-KTTKS, palmitoyl-lysine-threonine-threonine-lysine-serine] (Palmitoyl-KTTKS-OH; C-terminus assumed)
- penetration enhancement of Pal-KTTKS into epidermis [1]: best penetration enhancement
- amount of Pal-KTTKS recovered, Sum 2-10 [2, 3]: 42.02
- amount of Pal-KTTKS recovered, Sum 6-10 [2, 3]: 22.74
- amount of Pal-KTTKS recovered, Sum 2-10 [2, 4]: 83.43
- amount of Pal-KTTKS recovered, Sum 6-10 [2, 4]: 53.81
- amount of Pal-KTTKS recovered, Sum 2-10 [2, 5]: 40.40
- amount of Pal-KTTKS recovered, Sum 6-10 [2, 5]: 17.29
- amount of Pal-KTTKS recovered, Sum 2-10 [2, 6]: 42.67
- amount of Pal-KTTKS recovered, Sum 6-10 [2, 6]: 21.36
- amount of Pal-KTTKS recovered, Sum 2-10 [2, 7]: 36.84
- amount of Pal-KTTKS recovered, Sum 6-10 [2, 7]: 16.95
- amount of Pal-KTTKS recovered, Sum 2-10 [2, 8]: 31.64
- amount of Pal-KTTKS recovered, Sum 6-10 [2, 8]: 19.40
- amount of Pal-KTTKS recovered, Sum 2-10 [2, 9]: 90.87
- amount of Pal-KTTKS recovered, Sum 6-10 [2, 9]: 54.66
- amount of Pal-KTTKS recovered, Sum 2-10 [2, 10]: 18.10
- amount of Pal-KTTKS recovered, Sum 6-10 [2, 10]: 9.26
- amount of Pal-KTTKS recovered, Sum 2-10 [2, 11]: 18.31
- amount of Pal-KTTKS recovered, Sum 6-10 [2, 11]: 8.02
- amount of Pal-KTTKS recovered, Sum 2-10 [2, 12]: 31.17
- amount of Pal-KTTKS recovered, Sum 6-10 [2, 12]: 14.86
- amount of Pal-KTTKS recovered, Sum 2-10 [2, 13]: 26.78
- amount of Pal-KTTKS recovered, Sum 6-10 [2, 13]: 11.84
- Enhancement value Strips 2-10 (active/passive) ([2]; array #8, Avg of the enhancement values of all test sites): 4.00
- Enhancement value Strips 2-10 (active/passive) ([2]; array #8, subject A site 1): 1.34
- Enhancement value Strips 6-10 (active/passive) ([2]; array #8, subject A site 1): 1.33
- Enhancement value Strips 2-10 (active/passive) ([2]; array #8, subject A site 2): 16.52
- Enhancement value Strips 2-10 (active/passive) ([2]; array #8, subject B site 1): 3.39
- Enhancement value Strips 6-10 (active/passive) ([2]; array #8, subject B site 1): 18.16
- Enhancement value Strips 2-10 (active/passive) ([2]; array #8, subject B site 2): 3.47
- Enhancement value Strips 2-10 (active/passive) ([2]; array #8, subject C site 1): 2.23
- Enhancement value Strips 6-10 (active/passive) ([2]; array #8, subject C site 1): 3.03
- Enhancement value Strips 2-10 (active/passive) ([2]; array #8, subject C site 2): 1.32
- Enhancement value Strips 6-10 (active/passive) ([2]; array #8, subject C site 2): 1.22
- Enhancement value Strips 2-10 (active/passive) ([2]; array #8, subject D site 1): 1.72
- Enhancement value Strips 6-10 (active/passive) ([2]; array #8, subject D site 1): 3.63
- Enhancement value Strips 2-10 (active/passive) ([2]; array #8, subject D site 2): 2.35
- Enhancement value Strips 2-10 (active/passive) ([2]; array #8, subject E site 1): 4.86
- Enhancement value Strips 6-10 (active/passive) ([2]; array #8, subject E site 1): 10.70
- Enhancement value Strips 2-10 (active/passive) ([2]; array #8, subject E site 2): 2.75
- Enhancement value Strips 6-10 (active/passive) ([2]; array #8, subject E site 2): 6.73
- amount of Pal-KTTKS recovered, Sum 2-10 ([2]; passive, Avg of all test sites): 20.55
- amount of Pal-KTTKS recovered, Sum 6-10 ([2]; passive, Avg of all test sites): 10.01
- amount of Pal-KTTKS recovered, Sum 2-10 ([2]; passive, subject A site 1): 62.40
- amount of Pal-KTTKS recovered, Sum 6-10 ([2]; passive, subject A site 1): 40.39
- amount of Pal-KTTKS recovered, Sum 2-10 ([2]; passive, subject A site 2): 2.45
- amount of Pal-KTTKS recovered, Sum 6-10 ([2]; passive, subject A site 2): 0.00
- amount of Pal-KTTKS recovered, Sum 2-10 ([2]; passive, subject B site 1): 12.58
- amount of Pal-KTTKS recovered, Sum 6-10 ([2]; passive, subject B site 1): 2.25
- amount of Pal-KTTKS recovered, Sum 2-10 ([2]; passive, subject B site 2): 10.61
- amount of Pal-KTTKS recovered, Sum 6-10 ([2]; passive, subject B site 2): 1.04
- amount of Pal-KTTKS recovered, Sum 2-10 ([2]; passive, subject C site 1): 14.16
- amount of Pal-KTTKS recovered, Sum 6-10 ([2]; passive, subject C site 1): 5.56
- amount of Pal-KTTKS recovered, Sum 2-10 ([2]; passive, subject C site 2): 68.87
- amount of Pal-KTTKS recovered, Sum 6-10 ([2]; passive, subject C site 2): 43.44
- amount of Pal-KTTKS recovered, Sum 2-10 ([2]; passive, subject D site 1): 10.53
- amount of Pal-KTTKS recovered, Sum 6-10 ([2]; passive, subject D site 1): 3.35
- amount of Pal-KTTKS recovered, Sum 2-10 ([2]; passive, subject D site 2): 7.81
- amount of Pal-KTTKS recovered, Sum 6-10 ([2]; passive, subject D site 2): 0.00
- amount of Pal-KTTKS recovered, Sum 2-10 ([2]; passive, subject E site 1): 6.41
- amount of Pal-KTTKS recovered, Sum 6-10 ([2]; passive, subject E site 1): 1.72
- amount of Pal-KTTKS recovered, Sum 2-10 ([2]; passive, subject E site 2): 9.74
- amount of Pal-KTTKS recovered, Sum 6-10 ([2]; passive, subject E site 2): 2.31
